According to patent US20160367623A1, “AGONISTS OF GUANYLATE CYCLASE USEFUL FOR THE TREATMENT OF GASTROINTESTINAL DISORDERS, INFLAMMATION, CANCER AND OTHER DISORDERS” (priority 2015, published 2016):
Bridge positions count the residues as written; N and C are the ends. Ends that are not written are not given here.

Tested on: patients with chronic idiopathic constipation (CIC)
Assay: Second phase 3 CIC trial: CSBM weekly responders by week
Assay type: in vivo, human
Conditions: MRA
Text: Both trials include a two-week pre-treatment baseline period, a 12-week treatment period, and a two-week post-treatment period. The phase 3 CIC program was designed to support regulatory submission in the U. S.
The primary endpoint for both trials is the proportion of durable overall responders (%), which is the current regulatory endpoint required for U.S. approval in CIC. The FDA has defined a durable overall responder as a patient who fulfills both ≧3 complete spontaneous bowel movements (CSBMs) per week plus an increase of ≧1 CSBM from baseline in the same week, for 9 out of the 12 treatment weeks. In addition, the same patient must be an overall responder for at least 3 of the last 4 treatment weeks in order to be considered a durable overall responder.
Patients were selected using Rome 3 criteria modified for CIC and had (1) fewer than 3 defecations per week, (2) loose stools occurring rarely without laxatives, (3) inadequate criteria for irritable bowel syndrome with constipation (IBS-C), and (4) at least two of the following applied to at least 25% of defecations: (a) straining during evacuation, (b) lumpy or hard stools, (c) sensation of anorectal obstruction or blockage. Rome 3 requires patients to fulfill the criteria for the last 3 months with symptom onset at least 6 months prior to diagnosis.

[1] = Week 2, 6 mg, ITT Population-Excluding Duplicate Patients
[2] = Week 2, Active Combined, ITT Population-Excluding Duplicate Patients
[3] = Week 2, Active Combined, ITT Population
[4] = Week 3, 3 mg, ITT Population-Excluding Duplicate Patients
[5] = Week 3, 6 mg, ITT Population-Excluding Duplicate Patients
[6] = Week 3, Active Combined, ITT Population-Excluding Duplicate Patients
[7] = Week 3, Active Combined, ITT Population
[8] = Week 4, 3 mg, ITT Population-Excluding Duplicate Patients
[9] = Week 4, 6 mg, ITT Population-Excluding Duplicate Patients
[10] = Week 4, Active Combined, ITT Population-Excluding Duplicate Patients
[11] = Week 4, Active Combined, ITT Population
[12] = Week 5, 3 mg, ITT Population-Excluding Duplicate Patients
[13] = Week 5, 6 mg, ITT Population-Excluding Duplicate Patients
[14] = Week 5, Active Combined, ITT Population-Excluding Duplicate Patients

**Q.** Which results are given for “Asn^1-Asp^2-Glu^3-Cys^4-Glu^5-Leu^6-Cys^7-Val^8-Asn^9-Val^10-Ala^11-Cys^12-Thr^13-Gly^14-Cys^15-Leu^16 (NDECELCVNVACTGCL; disulfide 4-12, 7-15) [Plecanatide, uroguanylin analogue, guanylate cyclase-C agonist; (C4:C12, C7:C15) bicycle peptide]”?
**A.** Difference in Proportions (adjusted) (Week 2, 6 mg minus placebo, All Randomized (includes Duplicate Patients)): 0.114; Odds Ratio (adjusted) (Week 2, 6 mg vs placebo, All Randomized (includes Duplicate Patients)): 0.513; CSBM Weekly Responders, n (%) (Week 2, 6 mg, All Randomized (includes Duplicate Patients)): 132 (28.0) n (%); CSBM Weekly Responders, n (%) (Week 2, 6 mg, ITT Population): 123 (27.4) n (%); Non-Responders, n (%) (Week 2, 6 mg, ITT Population): 326 (72.6) n (%); CSBM Weekly Responders, n (%) [1]: 123 (27.8) n (%); Non-Responders, n (%) [1]: 320 (72.2) n (%); CSBM Weekly Responders, n (%) (Week 2, Active Combined, All Randomized (includes Duplicate Patients)): 252 (26.8) n (%); Difference in Proportions (adjusted) (Week 2, 3 mg minus placebo, ITT Population-Excluding Duplicate Patients): 0.086; Difference in Proportions (adjusted) (Week 2, 3 mg minus placebo, ITT Population): 0.087; Odds Ratio (adjusted) (Week 2, 3 mg vs placebo, ITT Population-Excluding Duplicate Patients): 0.592; Odds Ratio (adjusted) (Week 2, 3 mg vs placebo, ITT Population): 0.59; Difference in Proportions (adjusted) (Week 2, 6 mg minus placebo, ITT Population-Excluding Duplicate Patients): 0.111; Difference in Proportions (adjusted) (Week 2, 6 mg minus placebo, ITT Population): 0.108; Odds Ratio (adjusted) (Week 2, 6 mg vs placebo, ITT Population-Excluding Duplicate Patients): 0.523; Odds Ratio (adjusted) (Week 2, 6 mg vs placebo, ITT Population): 0.53; CSBM Weekly Responders, n (%) [2]: 233 (26.6) n (%); Non-Responders, n (%) [2]: 644 (73.4) n (%); CSBM Weekly Responders, n (%) [3]: 235 (26.3) n (%); Non-Responders, n (%) [3]: 657 (73.7) n (%); Difference in Proportions (adjusted) (Week 3, 3 mg minus placebo, All Randomized (includes Duplicate Patients)): 0.070; Odds Ratio (adjusted) (Week 3, 3 mg vs placebo, All Randomized (includes Duplicate Patients)): 0.691; CSBM Weekly Responders, n (%) (Week 3, 3 mg, All Randomized (includes Duplicate Patients)): 135 (28.7) n (%); CSBM Weekly Responders, n (%) (Week 3, 3 mg, ITT Population): 125 (28.2) n (%); Non-Responders, n (%) (Week 3, 3 mg, ITT Population): 318 (71.8) n (%); CSBM Weekly Responders, n (%) [4]: 122 (28.1) n (%); Non-Responders, n (%) [4]: 312 (71.9) n (%); Difference in Proportions (adjusted) (Week 3, 6 mg minus placebo, All Randomized (includes Duplicate Patients)): 0.056; Odds Ratio (adjusted) (Week 3, 6 mg vs placebo, All Randomized (includes Duplicate Patients)): 0.738; CSBM Weekly Responders, n (%) (Week 3, 6 mg, ITT Population): 120 (26.7) n (%); Non-Responders, n (%) (Week 3, 6 mg, ITT Population): 329 (73.3) n (%); CSBM Weekly Responders, n (%) [5]: 119 (26.9) n (%); Non-Responders, n (%) [5]: 324 (73.1) n (%); Difference in Proportions (adjusted) (Week 3, 3 mg minus placebo, ITT Population-Excluding Duplicate Patients): 0.054; Difference in Proportions (adjusted) (Week 3, 3 mg minus placebo, ITT Population): 0.057; Odds Ratio (adjusted) (Week 3, 3 mg vs placebo, ITT Population-Excluding Duplicate Patients): 0.750; Odds Ratio (adjusted) (Week 3, 3 mg vs placebo, ITT Population): 0.739; Difference in Proportions (adjusted) (Week 3, 6 mg minus placebo, ITT Population-Excluding Duplicate Patients): 0.042; Difference in Proportions (adjusted) (Week 3, 6 mg minus placebo, ITT Population): 0.043; Odds Ratio (adjusted) (Week 3, 6 mg vs placebo, ITT Population-Excluding Duplicate Patients): 0.798; Odds Ratio (adjusted) (Week 3, 6 mg vs placebo, ITT Population): 0.796; CSBM Weekly Responders, n (%) [6]: 241 (27.5) n (%); Non-Responders, n (%) [6]: 636 (72.5) n (%); CSBM Weekly Responders, n (%) [7]: 245 (27.5) n (%); Non-Responders, n (%) [7]: 647 (72.5) n (%); Difference in Proportions (adjusted) (Week 4, 3 mg minus placebo, All Randomized (includes Duplicate Patients)): 0.093; Odds Ratio (adjusted) (Week 4, 3 mg vs placebo, All Randomized (includes Duplicate Patients)): 0.611; CSBM Weekly Responders, n (%) (Week 4, 3 mg, ITT Population): 132 (29.8) n (%); Non-Responders, n (%) (Week 4, 3 mg, ITT Population): 311 (70.2) n (%); CSBM Weekly Responders, n (%) [8]: 130 (30.0) n (%); Non-Responders, n (%) [8]: 304 (70.0) n (%); Difference in Proportions (adjusted) (Week 4, 6 mg minus placebo, All Randomized (includes Duplicate Patients)): 0.082; Odds Ratio (adjusted) (Week 4, 6 mg vs placebo, All Randomized (includes Duplicate Patients)): 0.644; CSBM Weekly Responders, n (%) (Week 4, 6 mg, ITT Population): 127 (28.3) n (%); Non-Responders, n (%) (Week 4, 6 mg, ITT Population): 322 (71.7) n (%); CSBM Weekly Responders, n (%) [9]: 126 (28.4) n (%); Non-Responders, n (%) [9]: 317 (71.6) n (%); Difference in Proportions (adjusted) (Week 4, 3 mg minus placebo, ITT Population-Excluding Duplicate Patients): 0.082; Difference in Proportions (adjusted) (Week 4, 3 mg minus placebo, ITT Population): 0.082; Odds Ratio (adjusted) (Week 4, 3 mg vs placebo, ITT Population-Excluding Duplicate Patients): 0.650; Odds Ratio (adjusted) (Week 4, 3 mg vs placebo, ITT Population): 0.648; Difference in Proportions (adjusted) (Week 4, 6 mg minus placebo, ITT Population-Excluding Duplicate Patients): 0.067; Difference in Proportions (adjusted) (Week 4, 6 mg minus placebo, ITT Population): 0.067; Odds Ratio (adjusted) (Week 4, 6 mg vs placebo, ITT Population-Excluding Duplicate Patients): 0.698; Odds Ratio (adjusted) (Week 4, 6 mg vs placebo, ITT Population): 0.697; CSBM Weekly Responders, n (%) [10]: 256 (29.2) n (%); Non-Responders, n (%) [10]: 621 (70.8) n (%); CSBM Weekly Responders, n (%) [11]: 259 (29.0) n (%); Non-Responders, n (%) [11]: 633 (71.0) n (%); Difference in Proportions (adjusted) (Week 5, 3 mg minus placebo, All Randomized (includes Duplicate Patients)): 0.119; Odds Ratio (adjusted) (Week 5, 3 mg vs placebo, All Randomized (includes Duplicate Patients)): 0.560; CSBM Weekly Responders, n (%) (Week 5, 3 mg, ITT Population): 154 (34.8) n (%); Non-Responders, n (%) (Week 5, 3 mg, ITT Population): 289 (65.2) n (%); CSBM Weekly Responders, n (%) [12]: 153 (35.3) n (%); Non-Responders, n (%) [12]: 281 (64.7) n (%); Difference in Proportions (adjusted) (Week 5, 6 mg minus placebo, All Randomized (includes Duplicate Patients)): 0.061; Odds Ratio (adjusted) (Week 5, 6 mg vs placebo, All Randomized (includes Duplicate Patients)): 0.731; CSBM Weekly Responders, n (%) (Week 5, 6 mg, ITT Population): 133 (29.6) n (%); Non-Responders, n (%) (Week 5, 6 mg, ITT Population): 316 (70.4) n (%); CSBM Weekly Responders, n (%) [13]: 132 (29.8) n (%); Non-Responders, n (%) [13]: 311 (70.2) n (%); Difference in Proportions (adjusted) (Week 5, 3 mg minus placebo, ITT Population-Excluding Duplicate Patients): 0.107; Difference in Proportions (adjusted) (Week 5, 3 mg minus placebo, ITT Population): 0.105; Odds Ratio (adjusted) (Week 5, 3 mg vs placebo, ITT Population-Excluding Duplicate Patients): 0.596; Odds Ratio (adjusted) (Week 5, 3 mg vs placebo, ITT Population): 0.602; Difference in Proportions (adjusted) (Week 5, 6 mg minus placebo, ITT Population-Excluding Duplicate Patients): 0.053; Difference in Proportions (adjusted) (Week 5, 6 mg minus placebo, ITT Population): 0.054; Odds Ratio (adjusted) (Week 5, 6 mg vs placebo, ITT Population-Excluding Duplicate Patients): 0.764; Odds Ratio (adjusted) (Week 5, 6 mg vs placebo, ITT Population): 0.762; CSBM Weekly Responders, n (%) [14]: 285 (32.5) n (%); Non-Responders, n (%) [14]: 592 (67.5) n (%); CSBM Weekly Responders, n (%) (Week 5, Active Combined, ITT Population): 287 (32.2) n (%)
